Laboratory results reported in BindingDB's records for doi:10.7270/Q2P55M4P (Burnham Center For Chemical Genomics, 2013).

Molecular target: Tumor necrosis factor receptor superfamily member 10B (Homo sapiens, UniProt O14763)
Sequence (O14763 whole entry): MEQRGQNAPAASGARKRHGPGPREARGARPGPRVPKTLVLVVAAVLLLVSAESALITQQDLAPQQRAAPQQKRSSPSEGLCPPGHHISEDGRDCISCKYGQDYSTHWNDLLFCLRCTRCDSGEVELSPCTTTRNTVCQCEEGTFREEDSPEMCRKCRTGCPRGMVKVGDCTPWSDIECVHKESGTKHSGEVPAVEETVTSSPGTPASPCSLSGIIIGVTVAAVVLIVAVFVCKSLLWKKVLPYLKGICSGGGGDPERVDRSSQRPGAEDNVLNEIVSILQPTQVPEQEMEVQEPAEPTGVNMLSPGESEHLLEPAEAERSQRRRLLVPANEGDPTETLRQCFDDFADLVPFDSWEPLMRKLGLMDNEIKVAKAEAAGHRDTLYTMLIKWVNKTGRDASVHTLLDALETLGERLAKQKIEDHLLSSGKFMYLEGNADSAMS

| Structure (SMILES) | EC50 [µM] |
| --- | --- |
| CN(C)c1ccc(N=CCC(=O)c2ccco2)cc1 | 7.62 |
| O=c1c2ccccc2nc2c3ccccc3cnn12 | > 12.5 |
| Cc1ccc(N=CC(C(=O)c2cccs2)C(=O)C(F)(F)F)cc1 (stereo unspecified) | 1.87 |
| CCOC(=O)C(c1nc2ccccc2[nH]1)n1c(-c2cccnc2)nc2ccccc21 (stereo unspecified) [2-(1,3-dihydrobenzimidazol-2-ylidene)-2-[2-(3-pyridinyl)-1-benzimidazolyl]acetic acid ethyl ester] | 10.5 |
| Cc1cc(N=NCc2ccccc2)nc(NCc2ccccc2)n1 [6-methyl-N2-(phenylmethyl)-N4-[(E)-(phenylmethylidene)amino]pyrimidine-2,4-diamine] | > 12.5 |
| O=C(Cc1ccc2ccccc2n1)c1ccc(O)cc1O [(2Z)-1-(2,4-dihydroxyphenyl)-2-(1H-quinolin-2-ylidene)ethanone] | > 12.5 |
| COc1cccc(N=CCC(=O)c2ccc(Cl)cc2)c1 [(E)-1-(4-chlorophenyl)-3-(3-methoxyanilino)-2-propen-1-one] | 10.3 |
| O=c1[nH]c(N=NCc2ccc3c(c2)OCO3)nc2ccccc12 [MLS000700888] | 10.9 |
| COc1ccc(C(C)N=Nc2nncc3ccccc23)cc1 (stereo unspecified) [N-[(E)-1-(4-methoxyphenyl)ethylideneamino]-1-phthalazinamine] | > 12.5 |
| COc1ccc(CN=Nc2nc3ccccc3c(=O)n2-c2ccccc2)cc1OC [SMR000174011] | 8.6 |
| CCOC(=O)c1ccc(N=CCC(=O)c2ccco2)cc1 [ethyl 4-[[(E)-3-(furan-2-yl)-3-oxoprop-1-enyl]amino]benzoate] | > 12.5 |
